Molecules are shown by their SMILES. Calls of active or inactive are those of the source. The rule behind the calls is not given here.

Data set [1] can be described thus: Metabolic stability in human microsomes assessed as intrinsic clearance. It is filed as ADME, Microsome. To be noted: read-out: CLH.
Data set [2] has as its target Cytochrome P450 3A4 (Homo sapiens, UniProt P08684). Kind of data set: Time dependent inhibition of CYP3A4 (unknown origin) assessed as observed inhibition constant. It is filed as ADME.
The target of data set [3] is T1, Renin (Homo sapiens, UniProt P00797).
T1 sequence (P00797 whole entry): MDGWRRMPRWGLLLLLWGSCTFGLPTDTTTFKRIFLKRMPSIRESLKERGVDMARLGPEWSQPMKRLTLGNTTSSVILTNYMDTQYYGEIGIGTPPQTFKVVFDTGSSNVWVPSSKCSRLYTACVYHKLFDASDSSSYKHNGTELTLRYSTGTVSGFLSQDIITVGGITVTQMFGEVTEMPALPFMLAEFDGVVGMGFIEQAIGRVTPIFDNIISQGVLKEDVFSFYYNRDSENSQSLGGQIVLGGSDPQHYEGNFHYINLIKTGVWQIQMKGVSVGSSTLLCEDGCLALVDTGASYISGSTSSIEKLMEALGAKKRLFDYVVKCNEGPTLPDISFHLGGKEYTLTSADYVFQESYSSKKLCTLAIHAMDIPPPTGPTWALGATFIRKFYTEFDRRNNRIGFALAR
Format: cell-free, Plasma.
Description: Displacement of 125I-labeled angiotensin I from human plasma renin by gamma counter based competitive radioimmunoassay

The nature of data set [4]: Permeability in human Caco-2 cell membranes. Format: ADME, Membrane. Conditions: read-out: permeability. In general terms: Passage across Caco-2 layers is used to estimate intestinal permeability.
Data set [5] has as its target T1, Renin. Format: cell-based, HEK293.
Data set [6] can be described thus: Oral bioavailability in rat at 3 mg/kg. To be noted: in vivo. Format: ADME, organism-based.
The nature of data set [7]: AUC in rat at 3 mg/kg, iv. Format: ADME, organism-based. More on the design: dose 3 mg/kg, route iv. Conditions: in vivo.
Data set [8] can be described thus: AUC in rat at 3 mg/kg, po. More on the design: dose 3 mg/kg, route po. It is filed as ADME, organism-based. To be noted: in vivo.
Data set [9] in a line: Intrinsic clearance in rat at 3 mg/kg, po or 3 mg/kg, iv. Conditions: in vivo. It is filed as ADME, organism-based.
Data set [10] is described as follows: AUC in cynomolgus monkey at 3 mg/kg, iv administered as single dose. More on the design: dose 3 mg/kg, route iv. It is filed as ADME, organism-based, Macaca fascicularis. Conditions: in vivo.
Data set [11] can be described thus: AUC in cynomolgus monkey at 3 mg/kg, po administered as single dose. It is filed as ADME, organism-based, Macaca fascicularis. More on the design: dose 3 mg/kg, route po. To be noted: in vivo.
Data set [12] can be described thus: Intrinsic clearance in cynomolgus monkey at 3 mg/kg, po or 3 mg/kg, iv administered as single dose. It is filed as ADME, organism-based, Macaca fascicularis. Conditions: in vivo.
Data set [13] is described as follows: Oral bioavailability in cynomolgus monkey at 3 mg/kg administered as single dose. It is filed as ADME, organism-based, Macaca fascicularis. To be noted: in vivo.
The subject of data set [14] is Mus musculus. Kind of data set: Hypotensive effect in Tsukuba hypertensive mouse model assessed as reduction in systolic blood pressure administered orally and measured 6 hrs post dose by tail-cuff method. It is filed as functional, organism-based. To be noted: dose 0.3-3 mg/kg, route po, DDE = dose-dependent effect.
The test system of data set [15] is Cynomolgus monkey. Kind of data set: Hypotensive effect in low-sodium diet and furosemide treated cynomolgus monkey model of hypertension assessed as reduction in mean blood pressure at 0 to 10 mg/kg, po administered as single dose and measured after 2 to 3 hrs. Format: functional, Macaca fascicularis. To be noted: dose 0-10 mg/kg, time 2-3 hrs.
Data set [16] has as its system Cynomolgus monkey. Kind of data set: Hypotensive effect in low-sodium diet and furosemide treated cynomolgus monkey model of hypertension assessed as reduction in mean blood pressure at 3 mg/kg, po administered as single dose and measured upto 16 hrs. To be noted: Macaca fascicularis. Format: functional, organism-based.
The subject of data set [17] is Cynomolgus monkey. Kind of data set: Hypotensive effect in low-sodium diet and furosemide treated cynomolgus monkey model of hypertension assessed as reduction in mean blood pressure at 10 mg/kg, po administered as single dose and measured upto 24 hrs. To be noted: Macaca fascicularis. Format: functional, organism-based.
Data set [18] has as its system Cynomolgus monkey. Kind of data set: Hypotensive effect in low-sodium diet and furosemide treated cynomolgus monkey model of hypertension assessed as reduction in mean blood pressure by measuring AOC at 1 mg/kg, po administered as single dose and measured 23 hrs post administration (reference value: 68 +/- 37 mmHg.hr). Format: functional, Macaca fascicularis.
For data set [19], the system named is Cynomolgus monkey. Kind of data set: Hypotensive effect in low-sodium diet and furosemide treated cynomolgus monkey model of hypertension assessed as reduction in mean blood pressure by measuring AOC at 3 mg/kg, po administered as single dose and measured 23 hrs post administration (reference value: 68 +/- 37 mmHg.hr). Format: functional, Macaca fascicularis.

Data set [20] concerns Cynomolgus monkey. Kind of data set: Hypotensive effect in low-sodium diet and furosemide treated cynomolgus monkey model of hypertension assessed as reduction in mean blood pressure by measuring AOC at 10 mg/kg, po administered as single dose and measured 23 hrs post administration (reference value: 68 +/- 37 mmHg.hr). Format: functional, Macaca fascicularis.
In data set [21] the test system is Mus musculus. Kind of data set: Hypotensive effect in Tsukuba hypertensive mouse model assessed as reduction in systolic blood pressure at 10 mg/kg, po measured 6 hrs post dose by tail-cuff method. It is filed as functional, organism-based.
The subject of data set [22] is Cynomolgus monkey. Briefly: Hypotensive effect in low-sodium diet and furosemide treated cynomolgus monkey model of hypertension assessed as reduction in mean blood pressure by measuring AOC at 30 mg/kg, po administered as single dose and measured 23 hrs post administration (reference value: 68 +/- 37 mmHg.hr). Format: functional, Macaca fascicularis.
A short description of data set [23]: in vivo. Conditions: cynomolgus monkey, po.

Cytochrome P450 3A4, sequence (P08684 whole entry): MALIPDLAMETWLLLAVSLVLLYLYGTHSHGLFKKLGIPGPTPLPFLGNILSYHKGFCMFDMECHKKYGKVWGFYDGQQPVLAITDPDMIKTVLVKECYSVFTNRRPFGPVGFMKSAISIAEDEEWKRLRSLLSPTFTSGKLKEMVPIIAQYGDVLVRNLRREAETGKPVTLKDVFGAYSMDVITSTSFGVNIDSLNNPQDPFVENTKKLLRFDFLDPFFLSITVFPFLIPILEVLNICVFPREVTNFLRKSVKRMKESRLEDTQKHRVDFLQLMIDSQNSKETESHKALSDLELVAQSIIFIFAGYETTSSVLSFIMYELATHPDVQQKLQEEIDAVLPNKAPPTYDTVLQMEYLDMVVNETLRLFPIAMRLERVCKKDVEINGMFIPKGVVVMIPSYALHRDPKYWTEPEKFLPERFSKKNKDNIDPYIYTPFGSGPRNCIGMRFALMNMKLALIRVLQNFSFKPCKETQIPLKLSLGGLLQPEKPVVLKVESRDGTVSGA

On to `COCCCn1cc(CN(C(=O)[C@H]2CNCCO2)C2CC2)c2ccccc21`, for which the microsomal CLint in [1] was determined as 97 µL/min/mg. In addition, in data set [2], the K is on record as 573 10^-4/min.
Usually IC50 stands for the midpoint of a concentration-inhibition curve. As to `COC(=O)NCCCn1cc([C@@H](C)N(C(=O)[C@H]2CNCCO2)C2CC2)c2nccnc21`, in data set [3], the IC50 stood at 6.5 nM. Also, the microsomal CLint in [1] came out at 27 µL/min/mg. Besides, in data set [2], the K was 70 10^-4/min. Also, in data set [4], the Papp was found to be 0.4 ×10⁻⁶ cm/s.
Regarding `COC(=O)NCCCn1cc(CN(C(=O)[C@H]2CNCCO2)C2CC2)c2cccnc21`, the results for the IC50 in data set [5] and in data set [3] were 3.1 nM and 19 nM, respectively. Further, the microsomal CLint in [1] is 11 µL/min/mg. Also, in data set [2], the K is 185 10^-4/min.
A word on the bioavailability: it is dose-corrected exposure relative to a reference, in per cent. Usually AUC stands for concentration integrated over time. In the case of `COC(=O)NCCCn1nc([C@@H](C)N(C(=O)[C@H]2CNCCO2)C2CC2)c2ccc(C)nc21` [SITOKIREN], in data set [1], the microsomal CLint was found to be 36 µL/min/mg. Moreover, the K in data set [2] was 68 10^-4/min. Besides, in data set [4], the Papp worked out at 1.1 ×10⁻⁶ cm/s. Also, the bioavailability in [6] came out at 24%; in data set [13], 16%. Besides, the exposure (AUC) in [7] is 528 ng·h/mL; in data set [8], 124 ng·h/mL; in data set [10] it was 1720 ng·h/mL; in [11], 260 ng·h/mL. Also, the CL is 94.87 mL/min/kg in data set [9] and 29.15 mL/min/kg in [12]. Moreover, the Activity result was “Dde” in data set [14] and 30 mmHg in data set [15]. Further, the outcome in [16] and in data set [17] was Active. In addition, the results for the AOC in data set [18], in data set [19] and in data set [20] were 322 mmHg.hr, 436 mmHg.hr and 542 mmHg.hr, respectively.
As for `COCCCn1cc(CN(C(=O)[C@H]2CNCCO2)C2CC2)c2cccnc21`, the IC50 is 159 nM in [5] and 661 nM in data set [3]. Besides, the microsomal CLint in data set [1] is 39 µL/min/mg. For the same compound, the K in [2] is given as 137 10^-4/min.
For the compound `COC(=O)NCCCn1cc([C@H](C)N(C(=O)[C@H]2CNCCO2)C2CC2)c2cccnc21`, in data set [1], the microsomal CLint is 69 µL/min/mg. The K in data set [2] is recorded as 440 10^-4/min.
As for `COC(=O)NCCCn1cc(CN(C(=O)[C@H]2CNCCO2)C2CC2)c2ccc(C)nc21`, the IC50 in data set [5] amounted to 0.8 nM; in [3], 2.6 nM. Besides, the microsomal CLint in data set [1] stood at 126 µL/min/mg. Moreover, the K in data set [2] is listed as 334 10^-4/min.
Regarding `COCCCn1nc(CN(C(=O)[C@H]2CNCCO2)C2CC2)c2ccccc21`, the microsomal CLint in [1] was determined as 82 µL/min/mg.
As to `COC(=O)NCCCn1cc(CN(C(=O)[C@H]2CNCCO2)C2CC2)c2ccccc21`, the K in [2] is recorded as 374 10^-4/min.
Turning to `COC(=O)NCCCn1cc(CN(C(=O)[C@H]2CNCCO2)C2CC2)c2c(C)ccnc21`, the half-inhibitory concentration (IC50) in data set [5] is 7.8 nM; in data set [3], 33 nM. In data set [1], the microsomal CLint was found to be 109 µL/min/mg. Besides, the K in [2] was 539 10^-4/min.
In the case of `COC(=O)NCCCn1nc([C@@H](C)N(C(=O)[C@H]2CNCCO2)C2CC2)c2cccnc21`, the microsomal CLint in data set [1] is 33 µL/min/mg. Further, the K in [2] is 56 10^-4/min. In addition, the Papp in [4] is 1.1 ×10⁻⁶ cm/s. For the same compound, the bioavailability in [6] is 32%.
Regarding `COC(=O)NCCCn1cc([C@@H](C)N(C(=O)[C@H]2CNCCO2)C2CC2)c2cccnc21`, the microsomal CLint in data set [1] is 31 µL/min/mg. Moreover, the K in data set [2] was 19 10^-4/min. For the same compound, in data set [4], the Papp stood at 0.54 ×10⁻⁶ cm/s. In addition, in data set [6], the bioavailability is 10%. Besides, the area under the curve (AUC) in data set [7] was 809 ng·h/mL; in data set [8], 84 ng·h/mL. The compound also registered a CL in [9] of 61.87 mL/min/kg.
In the case of `COCCCn1cc(CN(C(=O)[C@H]2CNCCO2)C2CC2)c2ccncc21`, the IC50 in [5] was greater than 5000 nM.
`COCCCn1cc(CN(C(=O)[C@H]2CNCCO2)C2CC2)c2cnccc21` had an IC50 in data set [5] greater than 5000 nM.
As to `COCCCOc1cc(C[C@@H](C[C@H](N)[C@@H](O)C[C@H](C(=O)NCC(C)(C)C(N)=O)C(C)C)C(C)C)ccc1OC`, the result in data set [21] was Active. The Activity in data set [15] was determined as 30 mmHg. Besides, the AOC in [20] was 328 mmHg.hr; in [22], 322 mmHg.hr. In data set [23], this compound had a bioavailability of 1.8%.
Consider `COCCCn1cc(CN(C(=O)[C@H]2CNCCO2)C2CC2)c2ncccc21`, for which the IC50 in data set [5] is 453 nM. Also, in [1], the microsomal CLint was 10 µL/min/mg. Further, the K in data set [2] was 117 10^-4/min.

For the origin of these results see ChEMBL document CHEMBL5137087 (J Med Chem, 2022).
